Laboratory results published in US7906655B2, “Hepatitis C virus inhibitors” (Bristol-Myers Squibb Company, priority 2008, dated 2011).

Tested on: HCV 1b genotype
Test: HCV Replicon assay (HCV-neo replicon cells, wild-type)
Type: cell-based
Details: HCV 1b genotype replicon
Method in brief: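 Assay used wild-type HCV genotype 1b replicon cells carrying neo, with luciferase reporter read-outs in some formats.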

[1] = Hepatitis C virus, class symbols

Row | SMILES | EC50 [1] | also measured
1 | COC(=O)N[C@H](C(=O)N1CCCC[C@H]1c1nc2ccc(-c3ccc(-c4ccc5nc([C@@H]6CCCCN6C(=O)[C@@H](NC(=O)OC)C(C)C)[nH]c5c4)cc3)cc2[nH]1)C(C)C [Example M46.3, Methyl((1S)-1-(((2S)-2-(5-(4-(2-((2S)-1-((2S)-2-((methoxycarbonyl)amino)-3-methylbutanoyl)-2-piperidinyl)-1H-benzimidazol-5-yl)phenyl)-1H-benzimidazol-2-yl)-1-piperidinyl)carbonyl)-2-methylpropyl)carbamate] | < 0.00457 µM | 
2 | O=C(Cc1ccccc1)N1CCC[C@H]1c1nc2cc(C#Cc3ccc4[nH]c([C@@H]5CCCN5C(=O)[C@H]5CCCO5)nc4c3)ccc2[nH]1 [Example M47, 5-((2-((2S)-1-(phenylacetyl)-2-pyrrolidinyl)-1H-benzimidazol-6-yl)ethynyl)-2-((2S)-1-((2R)-tetrahydro-2-furanylcarbonyl)-2-pyrrolidinyl)-1H-benzimidazole] | < 0.00457 µM | 
3 | O=C([C@H]1CCCO1)N1C[C@H](O)C[C@H]1c1nc2cc(C#Cc3ccc4[nH]c([C@@H]5C[C@@H](O)CN5C(=O)[C@H]5CCCO5)nc4c3)ccc2[nH]1 [Example M47.1, (3R,5S,3′R,5′S)-5,5′-(1,2-ethynediylbis(1H-benzimidazole-5,2-diyl))bis(1-((2R)-tetrahydro-2-furanylcarbonyl)-3-pyrrolidinol)] | 0.1 to 0.999 µM | 
4 | CC(C)CN[C@H]1C[C@@H](c2nc3cc(C#Cc4ccc5[nH]c([C@@H]6C[C@H](NCC(C)C)CN6C(=O)[C@H]6CCCO6)nc5c4)ccc3[nH]2)N(C(=O)[C@H]2CCCO2)C1 [Example M47.2, (3S,5S,3′S,5′S)-5,5′-(1,2-ethynediylbis(1H-benzimidazole-5,2-diyl))bis(N-isobutyl-1-((2R)-tetrahydro-2-furanylcarbonyl)-3-pyrrolidinamine)] |  | EC50 (Hepatitis C virus, numeric values): 0.61 µM
5 | O=C(Cc1ccccn1)N1CCC[C@H]1c1nc2ccc(C#Cc3ccc4[nH]c([C@@H]5CCCN5C(=O)[C@H]5CCCO5)nc4c3)cc2[nH]1 [Example M48, 5-((2-((2S)-1-(2-pyridinylacetyl)-2-pyrrolidinyl)-1H-benzimidazol-6-yl)ethynyl)-2-((2S)-1-((2R)-tetrahydro-2-furanylcarbonyl)-2-pyrrolidinyl)-1H-benzimidazole] |  | EC50 (class symbols): < 0.00457 µM
6 | O=C(Cc1cccnc1)N1CCC[C@H]1c1nc2ccc(C#Cc3ccc4[nH]c([C@@H]5CCCN5C(=O)[C@H]5CCCO5)nc4c3)cc2[nH]1 [Example M49, 5-((2-((2S)-1-(3-pyridinylacetyl)-2-pyrrolidinyl)-1H-benzimidazol-6-yl)ethynyl)-2-((2S)-1-((2R)-tetrahydro-2-furanylcarbonyl)-2-pyrrolidinyl)-1H-benzimidazole] | < 0.00457 µM | 
7 | O=C(Cc1cccs1)N1CCC[C@H]1c1nc2cc(C#Cc3ccc4nc([C@@H]5CCCN5C(=O)[C@H]5CCCO5)[nH]c4c3)ccc2[nH]1 [Example M50, 5-((2-((2S)-1-((2R)-tetrahydro-2-furanylcarbonyl)-2-pyrrolidinyl)-1H-benzimidazol-6-yl)ethynyl)-2-((2S)-1-(2-thienylacetyl)-2-pyrrolidinyl)-1H-benzimidazole] | < 0.00457 µM | 
8 | O=C(c1ccco1)N1CCC[C@H]1c1nc2ccc(C#Cc3ccc4[nH]c([C@@H]5CCCN5C(=O)[C@H]5CCCO5)nc4c3)cc2[nH]1 [Example M51, 5-((2-((2S)-1-(2-furoyl)-2-pyrrolidinyl)-1H-benzimidazol-6-yl)ethynyl)-2-((2S)-1-((2R)-tetrahydro-2-furanylcarbonyl)-2-pyrrolidinyl)-1H-benzimidazole] | < 0.00457 µM | 
9 | O=C(CC1CC1)N1CCC[C@H]1c1nc2ccc(C#Cc3ccc4[nH]c([C@@H]5CCCN5C(=O)[C@H]5CCCO5)nc4c3)cc2[nH]1 [Example M52, 5-((2-((2S)-1-(cyclopropylacetyl)-2-pyrrolidinyl)-1H-benzimidazol-6-yl)ethynyl)-2-((2S)-1-((2R)-tetrahydro-2-furanylcarbonyl)-2-pyrrolidinyl)-1H-benzimidazole] | 0.00457 to 0.099 µM | 
10 | CN(C)[C@@H](C(=O)N1CCC[C@H]1c1nc2cc(C#Cc3ccc4[nH]c([C@@H]5CCCN5C(=O)[C@H]5CCCO5)nc4c3)ccc2[nH]1)c1ccccc1 [Example M53, (1R)-N,N-dimethyl-2-oxo-1-phenyl-2-((2S)-2-(5-((2-((2S)-1-((2R)-tetrahydro-2-furanylcarbonyl)-2-pyrrolidinyl)-1H-benzimidazol-5-yl)ethynyl)-1H-benzimidazol-2-yl)-1-pyrrolidinyl) ethanamine] | < 0.00457 µM | 
11 | O=C(OCc1ccccc1)N1CCC[C@H]1c1nc2cc(C#Cc3ccc4[nH]c([C@@H]5CCCN5C(=O)[C@H]5CCCO5)nc4c3)ccc2[nH]1 [Example M54, benzyl (2S)-2-(5-((2-((2S)-1-((2R)-tetrahydro-2-furanylcarbonyl)-2-pyrrolidinyl)-1H-benzimidazol-5-yl)ethynyl)-1H-benzimidazol-2-yl)-1-pyrrolidine-carboxylate] | < 0.00457 µM | 
12 | O=C(c1ccccc1)N1CCC[C@H]1c1nc2ccc(C#Cc3ccc4[nH]c([C@@H]5CCCN5C(=O)[C@H]5CCCO5)nc4c3)cc2[nH]1 [Example M54.1, 5-((2-((2S)-1-benzoyl-2-pyrrolidinyl)-1H-benzimidazol-6-yl)ethynyl)-2-((2S)-1-((2R)-tetrahydro-2-furanylcarbonyl)-2-pyrrolidinyl)-1H-benzimidazole] | 0.00457 to 0.099 µM | 
13 | CCc1ccccc1C(=O)N1CCC[C@H]1c1nc2ccc(C#Cc3ccc4[nH]c([C@@H]5CCCN5C(=O)[C@H]5CCCO5)nc4c3)cc2[nH]1 [Example M54.2] |  | EC50 (class symbols): 0.1 to 0.999 µM
14 | O=C(c1cccnc1)N1CCC[C@H]1c1nc2ccc(C#Cc3ccc4[nH]c([C@@H]5CCCN5C(=O)[C@H]5CCCO5)nc4c3)cc2[nH]1 [Example M54.3, 5-((2-((2S)-1-(3-pyridinylcarbonyl)-2-pyrrolidinyl)-1H-benzimidazol-6-yl)ethynyl)-2-((2S)-1-((2R)-tetrahydro-2-furanylcarbonyl)-2-pyrrolidinyl)-1H-benzimidazole] | 0.00457 to 0.099 µM | 
15 | O=C(c1cccs1)N1CCC[C@H]1c1nc2cc(C#Cc3ccc4nc([C@@H]5CCCN5C(=O)[C@H]5CCCO5)[nH]c4c3)ccc2[nH]1 [Example M54.4, 5-((2-((2S)-1-((2R)-tetrahydro-2-furanylcarbonyl)-2-pyrrolidinyl)-1H-benzimidazol-6-yl)ethynyl)-2-((2S)-1-(2-thienylcarbonyl)-2-pyrrolidinyl)-1H-benzimidazole] | < 0.00457 µM | 
16 | O=C(c1ccoc1)N1CCC[C@H]1c1nc2ccc(C#Cc3ccc4[nH]c([C@@H]5CCCN5C(=O)[C@H]5CCCO5)nc4c3)cc2[nH]1 [Example M54.5, 5-((2-((2S)-1-(3-furoyl)-2-pyrrolidinyl)-1H-benzimidazol-6-yl)ethynyl)-2-((2S)-1-((2R)-tetrahydro-2-furanylcarbonyl)-2-pyrrolidinyl)-1H-benzimidazole] | 0.00457 to 0.099 µM | 
17 | Cn1cccc1C(=O)N1CCC[C@H]1c1nc2ccc(C#Cc3ccc4[nH]c([C@@H]5CCCN5C(=O)[C@H]5CCCO5)nc4c3)cc2[nH]1 [Example M54.6, 5-((2-((2S)-1-((1-methyl-1H-pyrrol-2-yl)carbonyl)-2-pyrrolidinyl)-1H-benzimidazol-6-yl)ethynyl)-2-((2S)-1-((2R)-tetrahydro-2-furanylcarbonyl)-2-pyrrolidinyl)-1H-benzimidazole] | 0.00457 to 0.099 µM | 
18 | CCC(=O)N1CCC[C@H]1c1nc2ccc(C#Cc3ccc4[nH]c([C@@H]5CCCN5C(=O)[C@H]5CCCO5)nc4c3)cc2[nH]1 [Example M54.7, 5-((2-((2S)-1-propionyl-2-pyrrolidinyl)-1H-benzimidazol-6-yl)ethynyl)-2-((2S)-1-((2R)-tetrahydro-2-furanylcarbonyl)-2-pyrrolidinyl)-1H-benzimidazole] | 0.00457 to 0.099 µM | 
19 | CC(C)C(=O)N1CCC[C@H]1c1nc2ccc(C#Cc3ccc4[nH]c([C@@H]5CCCN5C(=O)[C@H]5CCCO5)nc4c3)cc2[nH]1 [Example M54.8, 5-((2-((2S)-1-isobutyryl-2-pyrrolidinyl)-1H-benzimidazol-6-yl)ethynyl)-2-((2S)-1-((2R)-tetrahydro-2-furanylcarbonyl)-2-pyrrolidinyl)-1H-benzimidazole] | 0.00457 to 0.099 µM | 
20 | O=C(C1CC1)N1CCC[C@H]1c1nc2ccc(C#Cc3ccc4[nH]c([C@@H]5CCCN5C(=O)[C@H]5CCCO5)nc4c3)cc2[nH]1 [Example M54.9, 5-((2-((2S)-1-(cyclopropyl-carbonyl)-2-pyrrolidinyl)-1H-benzimidazol-6-yl)ethynyl)-2-((2S)-1-((2R)-tetrahydro-2-furanylcarbonyl)-2-pyrrolidinyl)-1H-benzimidazole] | 0.00457 to 0.099 µM | 
21 | O=C(C1CCC1)N1CCC[C@H]1c1nc2ccc(C#Cc3ccc4[nH]c([C@@H]5CCCN5C(=O)[C@H]5CCCO5)nc4c3)cc2[nH]1 [Example M54.10, 5-((2-((2S)-1-(cyclobutyl-carbonyl)-2-pyrrolidinyl)-1H-benzimidazol-6-yl)ethynyl)-2-((2S)-1-((2R)-tetrahydro-2-furanylcarbonyl)-2-pyrrolidinyl)-1H-benzimidazole] | 0.00457 to 0.099 µM | 
22 | CNc1ccccc1C(=O)N1CCC[C@H]1c1nc2cc(C#Cc3ccc4[nH]c([C@@H]5CCCN5C(=O)[C@H]5CCCO5)nc4c3)ccc2[nH]1 [Example M54.11, N-methyl-2-(((2S)-2-(5-((2-((2S)-1-((2R)-tetrahydro-2-furanylcarbonyl)-2-pyrrolidinyl)-1H-benzimidazol-5-yl)ethynyl)-1H-benzimidazol-2-yl)-1-pyrrolidinyl)carbonyl)aniline] | 0.00457 to 0.099 µM | 
23 | CCCOc1ccccc1C(=O)N1CCC[C@H]1c1nc2ccc(C#Cc3ccc4[nH]c([C@@H]5CCCN5C(=O)[C@H]5CCCO5)nc4c3)cc2[nH]1 [Example M54.12, 5-((2-((2S)-1-(2-propoxybenzoyl)-2-pyrrolidinyl)-1H-benzimidazol-6-yl)ethynyl)-2-((2S)-1-((2R)-tetrahydro-2-furanylcarbonyl)-2-pyrrolidinyl)-1H-benzimidazole] | 0.1 to 0.999 µM | 
24 | O=C(c1ccccc1NCc1ccccc1)N1CCC[C@H]1c1nc2cc(C#Cc3ccc4[nH]c([C@@H]5CCCN5C(=O)[C@H]5CCCO5)nc4c3)ccc2[nH]1 [Example M54.13, N-benzyl-2-(((2S)-2-(5-((2-((2S)-1-((2R)-tetrahydro-2-furanylcarbonyl)-2-pyrrolidinyl)-1H-benzimidazol-5-yl)ethynyl)-1H-benzimidazol-2-yl)-1-pyrrolidinyl)carbonyl)aniline] | 0.1 to 0.999 µM | 
